# Source: PubChem BioAssay (NCI)
#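 Method: 48-hour compound exposure of cells in 96-well plates, five concentrations, linear interpolation of endpoints. TGI denotes the concentration required for complete inhibition of growth.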
# Test system: LOX IMVI melanoma
# Assay: NCI anticancer screen, dose series, 48 h
row,Structure (SMILES),TGI [µM]
1,COc1ccc(NC2=CC(=O)C(=O)c3ccccc32)nn1,4.14
2,CC1(C(=O)O)CCCC1C(=O)O (stereo not drawn),> 100
3,C=c1c(OC)c(OC)c(O)c2c1=c1cc([N+](=O)[O-])cc(OC)c1=N2,> 100

# Test system: HS 578T breast
# Assay: NCI anticancer screen, dose series, 48 h
row,Structure (SMILES),TGI [µM]
1,C=C1C(=O)O[C@@]23C1CC[C@@H](C)C2CC[C@@]1(C)OC31 (stereo partly drawn),46.5
2,O=c1[nH]nc(-c2ccccc2)c2[nH]c(-c3ccccc3)cc12,> 100
3,CC1S/C(=N/c2nnc(-c3ccccc3)o2)NC1=O (stereo not drawn),> 100
4,CC1(C)CNC(=O)C2(C=NC(C)(C)CNC(=O)C3(C=N1)CCCO3)CCCO2 (stereo not drawn),> 10
5,CC(=S)N=Cc1c(O)cc(C)oc1=O,> 100
6,COc1ccc(NC2=CC(=O)C(=O)c3ccccc32)nn1,> 100
7,CC1(C(=O)O)CCCC1C(=O)O (stereo not drawn),> 100
8,C=c1c(OC)c(OC)c(O)c2c1=c1cc([N+](=O)[O-])cc(OC)c1=N2,> 100

# Test system: SK-OV-3 ovarian
# Assay: NCI anticancer screen, dose series, 48 h
row,Structure (SMILES),TGI [µM]
1,C=C1C(=O)O[C@@]23C1CC[C@@H](C)C2CC[C@@]1(C)OC31 (stereo partly drawn),47.6
2,O=c1[nH]nc(-c2ccccc2)c2[nH]c(-c3ccccc3)cc12,> 100
3,CC1(C)CNC(=O)C2(C=NC(C)(C)CNC(=O)C3(C=N1)CCCO3)CCCO2 (stereo not drawn),> 10
4,CC(=S)N=Cc1c(O)cc(C)oc1=O,> 100
5,COc1ccc(NC2=CC(=O)C(=O)c3ccccc32)nn1,9.41
6,C=c1c(OC)c(OC)c(O)c2c1=c1cc([N+](=O)[O-])cc(OC)c1=N2,> 100

# Test system: IGROV1 ovarian
# Assay: NCI anticancer screen, dose series, 48 h
row,Structure (SMILES),TGI [µM]
1,C=C1C(=O)O[C@@]23C1CC[C@@H](C)C2CC[C@@]1(C)OC31 (stereo partly drawn),32.3
2,O=c1[nH]nc(-c2ccccc2)c2[nH]c(-c3ccccc3)cc12,> 100
3,CC1S/C(=N/c2nnc(-c3ccccc3)o2)NC1=O (stereo not drawn),> 100
4,CC1(C)CNC(=O)C2(C=NC(C)(C)CNC(=O)C3(C=N1)CCCO3)CCCO2 (stereo not drawn),> 10
5,CC(=S)N=Cc1c(O)cc(C)oc1=O,> 100
6,COc1ccc(NC2=CC(=O)C(=O)c3ccccc32)nn1,11.1
7,CC1(C(=O)O)CCCC1C(=O)O (stereo not drawn),> 100
8,C=c1c(OC)c(OC)c(O)c2c1=c1cc([N+](=O)[O-])cc(OC)c1=N2,> 100

# Test system: NCI/ADR-RES ovarian
# Assay: NCI anticancer screen, dose series, 48 h
row,Structure (SMILES),TGI [µM]
1,C=C1C(=O)O[C@@]23C1CC[C@@H](C)C2CC[C@@]1(C)OC31 (stereo partly drawn),48.4
2,O=c1[nH]nc(-c2ccccc2)c2[nH]c(-c3ccccc3)cc12,> 100
3,CC1S/C(=N/c2nnc(-c3ccccc3)o2)NC1=O (stereo not drawn),> 100
4,CC1(C)CNC(=O)C2(C=NC(C)(C)CNC(=O)C3(C=N1)CCCO3)CCCO2 (stereo not drawn),> 10
5,CC(=S)N=Cc1c(O)cc(C)oc1=O,> 100
6,COc1ccc(NC2=CC(=O)C(=O)c3ccccc32)nn1,3.65
7,CC1(C(=O)O)CCCC1C(=O)O (stereo not drawn),> 100
8,C=c1c(OC)c(OC)c(O)c2c1=c1cc([N+](=O)[O-])cc(OC)c1=N2,> 100

# Test system: SK-MEL-28 melanoma
# Assay: NCI anticancer screen, dose series, 48 h
row,Structure (SMILES),TGI [µM]
1,C=C1C(=O)O[C@@]23C1CC[C@@H](C)C2CC[C@@]1(C)OC31 (stereo partly drawn),22.6
2,CC1S/C(=N/c2nnc(-c3ccccc3)o2)NC1=O (stereo not drawn),> 100
3,CC1(C)CNC(=O)C2(C=NC(C)(C)CNC(=O)C3(C=N1)CCCO3)CCCO2 (stereo not drawn),> 10
4,COc1ccc(NC2=CC(=O)C(=O)c3ccccc32)nn1,2.3
5,CC1(C(=O)O)CCCC1C(=O)O (stereo not drawn),> 100
6,C=c1c(OC)c(OC)c(O)c2c1=c1cc([N+](=O)[O-])cc(OC)c1=N2,> 100

# Test system: UO-31 renal
# Assay: NCI anticancer screen, dose series, 48 h
row,Structure (SMILES),TGI [µM]
1,C=C1C(=O)O[C@@]23C1CC[C@@H](C)C2CC[C@@]1(C)OC31 (stereo partly drawn),18.5
2,O=c1[nH]nc(-c2ccccc2)c2[nH]c(-c3ccccc3)cc12,> 100
3,CC1S/C(=N/c2nnc(-c3ccccc3)o2)NC1=O (stereo not drawn),> 100
4,CC(=S)N=Cc1c(O)cc(C)oc1=O,> 100
5,COc1ccc(NC2=CC(=O)C(=O)c3ccccc32)nn1,11.8
6,CC1(C(=O)O)CCCC1C(=O)O (stereo not drawn),> 100
7,C=c1c(OC)c(OC)c(O)c2c1=c1cc([N+](=O)[O-])cc(OC)c1=N2,> 100

# Test system: RXF 393 renal
# Assay: NCI anticancer screen, dose series, 48 h
row,Structure (SMILES),TGI [µM]
1,C=C1C(=O)O[C@@]23C1CC[C@@H](C)C2CC[C@@]1(C)OC31 (stereo partly drawn),39.9
2,O=c1[nH]nc(-c2ccccc2)c2[nH]c(-c3ccccc3)cc12,> 100
3,CC1S/C(=N/c2nnc(-c3ccccc3)o2)NC1=O (stereo not drawn),> 100
4,CC1(C)CNC(=O)C2(C=NC(C)(C)CNC(=O)C3(C=N1)CCCO3)CCCO2 (stereo not drawn),> 10
5,CC(=S)N=Cc1c(O)cc(C)oc1=O,> 100
6,COc1ccc(NC2=CC(=O)C(=O)c3ccccc32)nn1,3.78
7,CC1(C(=O)O)CCCC1C(=O)O (stereo not drawn),> 100
